The values below come from patent publication US9164084B2, “Methods for determining aggressiveness of a cancer and treatment thereof” (Purdue Research Foundation, priority 2012, dated 2015).

For experiment [1], the system named is BxPC3 cells. Description: Cell viability (ATP level) of BxPC3 cells. The settings on record: 7.5 μM for various periods. The class given is cell-based. How it is done:
The cells were treated with […] (control) or 7.5 μM avasimibe for various periods. Then cells were lysed and ATP level were quantified to determine the number of viable cells.
As the ACAT-1 inhibitor, avasimibe, effectively removed lipid droplet or cholesteryl ester accumulation in pancreatic cancer cells, the use of avasimibe as a chemotherapy agent for pancreatic cancer was explored. The effects of avasimibe on cell viability in BxPC3 and PANC-1 cells were examined.

For experiment [2], the system named is PC-3 cells. Description: Spectroscopic imaging and Raman spectral analysis of lipid droplets in PC-3 cells. The class given is cell-based, human. The text has this:
A broad spectrum of human prostate epithelial cells has been examined. […] Loss of the tumor suppressor PTEN has been widely observed in both localized and metastatic prostate cancer and correlated with high Gleason grade. With loss of PTEN, PI3K signaling is hyper-activated, which, in turn, leads to AKT activation. […] AKT mediates the phosphorylation and activation of mTOR complex 1 (mTORC1) which plays critical roles in the regulation of protein and lipid biosynthesis. To determine whether the PI3K/AKT/mTOR pathway regulates cholesteryl ester accumulation, both types of cholesteryl ester rich cell lines, PC-3 and high passage LNCaP (LNCaP-HP), were treated with LY294002 (PI3K inhibitor), MK2206 (AKT inhibitor), and Rapamycin (mTOR inhibitor), respectively.
Because cholesterol can be either de novo synthesized via the mevalonate pathway or taken up from exogenous lipoproteins, the source of cholesterol used for cholesteryl ester accumulation was investigated. PC-3 cell were first treated with Simvastatin, an inhibitor of 3-hydroxy-3-methylglutaryl coenzyme A HMG-CoA reductase, the rate-limiting enzyme of the mevalonate pathway. […] In contrast, after treating cells with lipoprotein-deficient serum (LPDS), lipid droplets nearly disappeared in cholesteryl ester rich PC-3 and LNCaP-HP cells (FIG. 29, Panel A), but remained the same amount in cholesteryl ester poor cells including LNCaP-LP, DU145, and C4-2. Re-addition of low-density lipoprotein (LDL) into the LPDS medium restored lipid droplets and cholesteryl ester in both PC-3 and LNCaP-HP cells (FIG. 29, Panel B).
It is well known that LDL enters a cell via LDL receptor (LDLr) and traffics to the late endosome and lysosome where it is hydrolyzed to free fatty acids and free cholesterol. The excess free cholesterol together with the fatty acyl CoA substrate is then converted to cholesteryl ester by Acyl coenzyme A: cholesterol acyltransferase (ACAT) and stored in lipid droplets. Thus, cells were separately treated with Avasimibe and Sandoz 58-035, two different ACAT inhibitors. […] The significant reduction of cholesteryl ester accumulation upon Avasimibe treatment was further confirmed by an independent biochemical assay of cell lysates.

Experiment [3] relates to LNCaP-HP cells. The experiment is described as follows: Cell growth / viable cell number of LNCaP-HP cells. The class given is cell-based, human. As to conditions: for proliferation (growth) rate, MTT assay: treatment started at day 1 (FIG. 14). How it is done: To study the impact of cholesteryl ester storage on tumor growth, the growth rate of LNCaP-HP and LNCaP-LP cells were measured using MTT assay (a colorimetric assay for measuring number of cells present, where the color is proportional to the number of cells).
Because cholesteryl ester accumulation was found in PCa but not in normal prostate, how cell viability could be affected by regulating cholesteryl ester levels with the ACAT inhibitor Avasimibe was evaluated. […] The inhibitory effect of Avasimibe on the growth of PC-3 and LNCaP-HP cells was considerably greater than that in cholesteryl ester poor cancer cells including LNCaP-LP, DU145, and C4-2.
(Tetrazolium dyes change colour on reduction, which living cells bring about.)

Experiment [4] concerns PC-3 cells. The experiment is described as follows: LC-MS of arachidonic acid (AA) in PC-3 cell lysates. The class given is cell-based, human. The source says: Finally, it was investigated whether Avasimibe-mediated suppression of tumor growth is associated with the regulation of cholesterol metabolism machinery. It was hypothesized that abrogating ACAT activity would up-regulate cellular level of free cholesterol and then down-regulate SREBP and LDLr in PCa cells (FIG. 40). […] To provide an explanation for enhanced uptake of LDL and then storage of excess cholesterol in the form of cholesteryl ester in aggressive prostate cancer, it was noticed that LDL is the primary carrier of essential polyunsaturated fatty acid including arachidonic acid (AA). Inside cells, AA is converted to a wide range of eicosanoids, which have been implicated in various pathological processes such as inflammation and cancer.

The test system of experiment [5] is PANC-1 cells. Description: CRS microscopy and Raman spectroscopy of cholesteryl ester in PANC-1 cells. The class given is cell-based. The settings on record: 7.5 μM for 24 h (FIG. 48). The text has this: (§1) Coherent Raman scattering (CRS) microscopy is a label-free imaging technique that is highly sensitive to C—H bond abundant structures such as membranes and lipid droplets. By matching the C—H bond stretching vibration mode at 2850 cm^−1, lipid distribution was imaged in human pancreatic cancer (n=10) and normal tissues (n=10) provided by IU School of Medicine. A remarkable amount of lipid droplets in all pancreatic cancer tissues was observed (FIG. 47, Panel B). […] Furthermore, by coupling a spectrometer to the CRS microscope, the devices was able to dissect the composition of individual lipid droplets through confocal Raman spectral analysis. […] Using emulsified mixtures of cholesteryl oleate and glyceryl trioleate (Sigma), it was verified that height ratio of the Raman peak at 702 cm^−1 the Raman peak at 1442 cm^−1 (CH^2 bending vibration mode) is linearly proportional to molar percentage of cholesteryl ester (FIG. 47, Panel D) out of the total neutral lipids. Based on this calibration curve, it was concluded that over 80% of neutral lipids in human pancreatic cancer tissues are cholesteryl ester. In order to understand how lipids accumulate in pancreatic cancer, several in vitro studies using two common pancreatic cancer cell lines, BxPC3 and PANC-1 were performed. […]

Experiment [6] deals with BxPC3 cells. The experiment is described as follows: CRS microscopy of lipid droplets in BxPC3 cells. The class given is cell-based. The settings on record: 7.5 μM for 24 h (FIG. 48).
Text: as §1

“Also recorded” adds a separate entry of the source.

Turning to `CC(C)c1cc(C(C)C)c(CC(=O)NS(=O)(=O)Oc2c(C(C)C)cccc2C(C)C)c(C(C)C)c1` [Avasimibe, avasimibe], the “cell viability (ATP level)” value in experiment [1] is reported as “significantly reduced cell viability”; in experiment [1] (listed as avasimibe), “significantly reduced the viability; also recorded: dramatically reduced the cell viability”. Further, the figures for the lipid droplet amount result in experiment [2], in experiment [6] and in experiment [6] (listed as avasimibe) were “remaining unchanged”, “reduced lipid droplet amount” and “reduced the lipid droplet amount; also recorded: significantly reduced the amount of lipid droplets”, respectively. For the same compound, the cholesteryl ester accumulation result was “effectively suppressed cholesteryl ester accumulation” in experiment [2] (ACAT inhibitor treatment), “blocked cholesteryl ester accumulation” in experiment [5] and “eliminated cholesteryl ester; also recorded: blocked cholesteryl ester accumulation” in experiment [5] (listed as avasimibe). The IC50 (as a rule, the concentration at which inhibition is half-maximal) in experiment [3] (Homo sapiens, 72 h, LNCaP-HP cell, 3 days) was 9.64 µM. For the same compound, the cytotoxicity at 7.5 µM in experiment [3] (Homo sapiens, 72 h, LNCaP-HP cells, 3 days of 7.5 μM, read-out: reduction in viable cell number) was around 55%. For the same compound, in experiment [3] (LNCaP-HP cells (FIG. 31)), the “proliferation (viable cell number)” value is given as “significantly hampered the proliferation”. For the same compound, the “proliferation (growth) rate, MTT assay” value is “significantly slowed down the proliferate rate” in experiment [3] (LNCaP-HP cells) and “significantly reduced growth rate” in experiment [3] (LNCaP-HP cells, listed as avasimide). In addition, the “level of AA (arachidonic acid)” value in experiment [4] is “significantly reduced the level of AA”.
